From patent US12220419B2, “BCL-2 inhibitors” (Newave Pharmaceutical Inc., priority 2018, dated 2025)
Counter-ions that a name gives are not always drawn. Like-named read-outs stand apart in the source and are kept apart here.

Legend:
[1] = target: BCL-2 (Homo sapiens (Human), UniProt P10415); experiment: BCL-2 competition binding (fluorescence polarization) assay; conditions: read-out: BCL2 IC50
Protocol: Biological Example 1: BCL-2 Competition Binding (Fluorescence Polarization) Assay
The fluorescence-labeled 23 amino acid peptide BH3 was purchased from CalBiochem ([…]). […] This binding assay was performed in 96-well plate and with each assay contained 15 and 30 nM of labeled peptide and purified BCL-2 protein (purchased from R&D Systems, Inc). The assay buffer contained 20 mM Hepes (pH 7.0), 50 mM KCl, 5 mM MgCl2, 20 mM Na2MoO4, 0.1 mg/ml Bovine Gamma Globulin and 0.01% NP40. Compounds were diluted in DMSO and added to the final assay with concentration range from 20 μM to 2 nM. The polarization degree (mP) value was determined by BioTek Synergy II with background subtraction after 3 hours of incubation at room temperature. IC50 was calculated using Prism software with sigmoidal dose-response curve fitting. ABT-737 was used as reference compound. Such assays, carried out with a range of doses of test compounds, allowed the determination of an approximate IC50 value.

[2] = system: BCL-2-dependent acute lymphoblastic leukemia (ALL) cell line RS4;11; experiment: In vitro anti-proliferation assay (ATPlite luminescence) in RS4;11; format: cell-based; conditions: RS4;11 cells, about 72 hours, medium with 5% FBS or 10% normal human serum
Protocol: Cell antiproliferation was assayed by PerkinElmer ATPlite™ Luminescence Assay System. Briefly, the various test cancer cell lines were plated at a density of about 1×10^4 cells per well in Costar 96-well plates, and were incubated with different concentrations of compounds for about 72 hours in medium supplemented with 5% FBS or 10% normal human serum (NHS). One lyophilized substrate solution vial was then reconstituted by adding 5 mL of substrate buffer solution, and was agitated gently until the solution was homogeneous. About 50 μL of mammalian cell lysis solution was added to 100 μL of cell suspension per well of a microplate, and the plate was shaken for about five minutes in an orbital shaker at 700 rpm. This procedure was used to lyse the cells and to stabilize the ATP. Next, 50 μL substrate solution was added to the wells and microplate was shaken for five minutes in an orbital shaker at 700 rpm. Finally, the luminescence was measured by a PerkinElmer TopCount® Microplate Scintillation Counter. Such assays, carried out with a range of doses of test compounds, allowed the determination of the cellular anti-antiproliferative IC50 of the compounds of the present invention.

[3] = fluorescein-labeled BH3 peptide 15 nM, purified BCL-2 protein 30 nM, 3 hours incubation at room temperature

Sequence of BCL-2 (P10415 whole entry): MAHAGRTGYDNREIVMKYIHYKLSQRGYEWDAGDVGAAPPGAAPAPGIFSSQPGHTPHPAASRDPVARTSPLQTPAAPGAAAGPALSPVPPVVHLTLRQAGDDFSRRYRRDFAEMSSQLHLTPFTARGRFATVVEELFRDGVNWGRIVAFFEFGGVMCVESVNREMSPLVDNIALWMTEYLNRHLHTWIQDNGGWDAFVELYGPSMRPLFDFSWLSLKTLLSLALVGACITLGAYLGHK

Row | Structure (SMILES) | IC50 [1, 3] [nM] | IC50 [2] [nM] | IC50 [1] [nM]
1 | CC1(C)CCC(CN2CCN(c3ccc(C(=O)NS(=O)(=O)c4ccc(NCC5CCOCC5)c([N+](=O)[O-])c4)c(N4CCCSc5nc6[nH]ccc6cc54)c3)CC2)=C(c2ccc(Cl)cc2)C1 [Example 27, 4-(4-((4′-chloro-5,5-dimethyl-3,4,5,6-tetrahydro-[1,1′-biphenyl]-2-yl)methyl)piperazin-1-yl)-2-(3,4-dihydro-2H-pyrrolo[3′,2′:5,6]pyrido[2,3-b][1,4]thiazepin-1(7H)-yl)-N-((3-nitro-4-(((tetrahydro-2H-pyran-4-yl)methyl)amino)phenyl)sulfonyl)benzamide] | 0.3 | 21 | 
2 | CC1(C)CCC(CN2CCN(c3ccc(C(=O)NS(=O)(=O)c4ccc(NCC5CCOCC5)c([N+](=O)[O-])c4)c(N4CCOc5ccccc54)c3)CC2)=C(c2ccc(Cl)cc2)C1 [Example 33, 4-(4-[[2-(4-chlorophenyl)-4,4-dimethylcyclohex-1-en-1-yl]methyl]piperazin-1-yl)-2-(3,4-dihydro-2H-1,4-benzoxazin-4-yl)-N-(3-nitro-4-[[(oxan-4-yl)methyl]amino]benzenesulfonyl)benzamide] | 42.6 |  | 
3 | CC1(C)CCC(CN2CCN(c3ccc(C(=O)NS(=O)(=O)c4ccc(NCC5CCOCC5)c([N+](=O)[O-])c4)c(N4CCOc5ccncc54)c3)CC2)=C(c2ccc(Cl)cc2)C1 [Example 34, 4-(4-[[2-(4-chlorophenyl)-4,4-dimethylcyclohex-1-en-1-yl]methyl]piperazin-1-yl)-N-[3-nitro-4-[(oxan-4-ylmethyl)amino]benzenesulfonyl]-2-[2H,3H-pyrido[4,3-b][1,4]oxazin-4-yl]benzamide] | 122 |  | 
4 | CC1(C)CCC(CN2CCN(c3ccc(C(=O)NS(=O)(=O)c4ccc(NCC5CCOCC5)c([N+](=O)[O-])c4)c(N4CCCOc5ncccc54)c3)CC2)=C(c2ccc(Cl)cc2)C1 [Example 35, 4-(4-[[2-(4-chlorophenyl)-4,4-dimethylcyclohex-1-en-1-yl]methyl]piperazin-1-yl)-N-[3-nitro-4-[(oxan-4-ylmethyl)amino]benzenesulfonyl]-2-[2H,3H,4H-pyrido[2,3-b][1,4]oxazepin-1-yl]benzamide] | 27 |  | 
5 | CC1(C)CCC(CN2CCN(c3ccc(C(=O)NS(=O)(=O)c4ccc(NCC5CCOCC5)c([N+](=O)[O-])c4)c(N4CC(F)(F)COc5nc6[nH]ccc6cc54)c3)CC2)=C(c2ccc(Cl)cc2)C1 [Example 36, 4-(4-[[2-(4-chlorophenyl)-4,4-dimethylcyclohex-1-en-1-yl]methyl]piperazin-1-yl)-2-[12,12-difluoro-14-oxa-2,4,10-triazatricyclo[7.5.0.0^[3,7]]tetradeca-1(9),2,5,7-tetraen-10-yl]-N-(3-nitro-4-[[(oxan-4-yl)methyl]amino]benzenesulfonyl)benzamide] |  | 0.95 | 
6 | CC1(C)CCC(CN2CCN(c3ccc(C(=O)NS(=O)(=O)c4ccc(NC[C@H]5COCCO5)c([N+](=O)[O-])c4)c(N4CCCOc5nc6[nH]ccc6cc54)c3)CC2)=C(c2ccc(O)cc2)C1 [Example 38, N-(4-[[(2S)-1,4-dioxan-2-ylmethyl]amino]-3-nitrobenzenesulfonyl)-4-(4-[[2-(4-hydroxyphenyl)-4,4-dimethylcyclohex-1-en-1-yl]methyl]piperazin-1-yl)-2-[14-oxa-2,4,10-triazatricyclo[7.5.0.0^[3,7]]tetradeca-1(9),2,5,7-tetraen-10-yl]benzamide] |  |  | 47
7 | CC1(C)CCC(CN2CCN(c3ccc(C(=O)NS(=O)(=O)c4ccc(NC[C@H]5COCCO5)c([N+](=O)[O-])c4)c(N4CCCOc5nc(N)ccc54)c3)CC2)=C(c2ccc(Cl)cc2)C1 [Example 39, 2-[7-amino-2H,3H,4H-pyrido[2,3-b][1,4]oxazepin-1-yl]-4-(4-[[2-(4-chlorophenyl)-4,4-dimethylcyclohex-1-en-1-yl]methyl]piperazin-1-yl)-N-(4-[[(2S)-1,4-dioxan-2-ylmethyl]amino]-3-nitrobenzenesulfonyl)benzamide] | 1.5 | 544 | 
8 | CC1(C)CCC(CN2CCN(c3ccc(C(=O)NS(=O)(=O)c4ccc(NCC5CCOCC5)c([N+](=O)[O-])c4)c(N4CCC(c5ccccn5)Oc5nc6[nH]ccc6cc54)c3)CC2)=C(c2ccc(Cl)cc2)C1 (stereo not shown) [Example 40, 4-(4-[[2-(4-chlorophenyl)-4,4-dimethylcyclohex-1-en-1-yl]methyl]piperazin-1-yl)-N-[3-nitro-4-[(oxan-4-ylmethyl)amino]benzenesulfonyl]-2-[13-(pyridin-2-yl)-14-oxa-2,4,10-triazatricyclo[7.5.0.0^[3,7]]tetradeca-1(9),2,5,7-tetraen-10-yl]benzamide hydrochloride] |  | 5.6 | 
9 | CC1(C)CCC(CN2CCN(c3ccc(C(=O)NS(=O)(=O)c4ccc(NC[C@H]5COCCO5)c([N+](=O)[O-])c4)c(N4CCOCc5nc6[nH]ccc6cc54)c3)CC2)=C(c2ccc(Cl)cc2)C1 [Example 41, 4-(4-[[2-(4-chlorophenyl)-4,4-dimethylcyclohex-1-en-1-yl]methyl]piperazin-1-yl)-N-(4-[[(2S)-1,4-dioxan-2-ylmethyl]amino]-3-nitrobenzenesulfonyl)-2-[13-oxa-2,4,10-triazatricyclo[7.5.0.0^[3,7]]tetradeca-1(9),2,5,7-tetraen-10-yl]benzamide hydrochloride] |  | 1.1 | 0.1
10 | CNc1ccc2c(n1)OCCCN2c1cc(N2CCN(CC3=C(c4ccc(Cl)cc4)CC(C)(C)CC3)CC2)ccc1C(=O)NS(=O)(=O)c1ccc(NC[C@H]2COCCO2)c([N+](=O)[O-])c1 [Example 42, 4-(4-[[2-(4-chlorophenyl)-4,4-dimethylcyclohex-1-en-1-yl]methyl]piperazin-1-yl)-N-(4-[[(2S)-1,4-dioxan-2-ylmethyl]amino]-3-nitrobenzenesulfonyl)-2-[7-(methylamino)-2H,3H,4H-pyrido[2,3-b][1,4]oxazepin-1-yl]benzamide hydrochloride] | 4.1 | > 1000 | 
11 | CC1(C)CCC(CN2CCN(c3ccc(C(=O)NS(=O)(=O)c4ccc(NCCN5CCN(CCOCCOCCNc6cccc7c6C(=O)N(C6CCC(=O)NC6=O)C7=O)CC5)c([N+](=O)[O-])c4)c(N4CCCOc5nc6[nH]ccc6cc54)c3)CC2)=C(c2ccc(Cl)cc2)C1 (stereo not shown) [Example 50, 4-(4-[[2-(4-chlorophenyl)-4,4-dimethylcyclohex-1-en-1-yl]methyl]piperazin-1-yl)-N-(4-[[2-(4-[2-[2-(2-[[2-(2,6-dioxopiperidin-3-yl)-1,3-dioxoisoindol-4-yl]amino]ethoxy)ethoxy]ethyl]piperazin-1-yl)ethyl]amino]-3-nitrobenzenesulfonyl)-2-[14-oxa-2,4,10-triazatricyclo[7.5.0.0^[3,7]]tetradeca-1(9),2,5,7-tetraen-10-yl]benzamide] |  | 43 | 0.6
12 | CC1(C)CCC(CN2CCN(c3ccc(C(=O)NS(=O)(=O)c4ccc(NCCOCCOCCOCCOCCNc5cccc6c5C(=O)N(C5CCC(=O)NC5=O)C6=O)c([N+](=O)[O-])c4)c(N4CCCOc5nc6[nH]ccc6cc54)c3)CC2)=C(c2ccc(Cl)cc2)C1 (stereo not shown) [Example 51, 4-(4-[[2-(4-chlorophenyl)-4,4-dimethylcyclohex-1-en-1-yl]methyl]piperazin-1-yl)-N-[4-(15-[[2-(2,6-dioxopiperidin-3-yl)-1,3-dioxoisoindol-4-yl]amino]-4,7,10,13-tetraoxa-1-azapentadecan-1-yl)-3-nitrobenzenesulfonyl]-2-[14-oxa-2,4,10-triazatricyclo[7.5.0.0^[3,7]]tetradeca-1(9),2,5,7-tetraen-10-yl]benzamide] | 0.9 | 62 | 
13 | CC1(C)CCC(CN2CCN(c3ccc(C(=O)NS(=O)(=O)c4ccc(NC[C@H]5COCCO5)c([N+](=O)[O-])c4)c(N4C(=O)COc5nc6[nH]ccc6cc54)c3)CC2)=C(c2ccc(Cl)cc2)C1 [Example 76, 4-(4-[[2-(4-chlorophenyl)-4,4-dimethylcyclohex-1-en-1-yl]methyl]piperazin-1-yl)-N-(4-[[(2S)-1,4-dioxan-2-ylmethyl]amino]-3-nitrobenzenesulfonyl)-2-[11-oxo-13-oxa-2,4,10-triazatricyclo[7.4.0.0[3,7]]trideca-1(9),2,5,7-tetraen-10-yl]benzamide] |  | 54 | 
